Reference: ChEMBL document CHEMBL1142661, “Structure-based drug discovery using GPCR homology modeling: successful virtual screening for antagonists of the alpha1A adrenergic receptor” (J Med Chem, 2005)

The compounds below were run against T1, Alpha-1A adrenergic receptor (Homo sapiens, UniProt P35348) (assay: Inhibition of [3H]prazosin binding to human adrenergic alpha-1A receptor expressed in CHO-K1 cell membranes).
T1 sequence (P35348 whole entry): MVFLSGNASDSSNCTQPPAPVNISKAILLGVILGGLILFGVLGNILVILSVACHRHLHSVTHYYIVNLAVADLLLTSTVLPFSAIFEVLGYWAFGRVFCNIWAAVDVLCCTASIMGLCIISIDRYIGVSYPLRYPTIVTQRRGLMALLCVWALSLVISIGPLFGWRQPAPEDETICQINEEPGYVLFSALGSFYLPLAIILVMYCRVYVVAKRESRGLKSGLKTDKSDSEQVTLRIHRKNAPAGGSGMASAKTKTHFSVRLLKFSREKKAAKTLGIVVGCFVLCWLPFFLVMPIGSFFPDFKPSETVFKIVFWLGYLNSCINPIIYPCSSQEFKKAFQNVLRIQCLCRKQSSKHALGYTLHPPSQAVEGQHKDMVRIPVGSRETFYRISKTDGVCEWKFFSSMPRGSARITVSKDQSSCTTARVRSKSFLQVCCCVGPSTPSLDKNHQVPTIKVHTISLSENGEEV

Structure (SMILES) | Ki
Clc1ccc(C2(Cn3ccnc3)OCC(CN3CCN(CCc4ccccc4)CC3)O2)c(Cl)c1 (centres undefined) | 300 nM
COc1ccccc1N1CCN(CCCNc2cc(O)nc(Nc3c(Cl)cccc3Cl)n2)CC1 | 3.6 nM
Nc1ccc(C(=O)NCCN2CCC(c3cccc4[nH]ccc34)CC2)cc1 | 9.5 nM
O=C(NCCCCN1CCN(c2csc3cc(F)ccc23)CC1)c1cnccn1 | 1.4 nM
